{"source": "paper PMC2812684", "about": "(Biochimica et biophysica acta, 2009)", "assay_type_in_all_cases": "cell-based", "key": {"[1]": {"biological_target": "T1, succinate dehydrogenase (complex II) (Rattus norvegicus, UniProt Q920L2)", "T1 sequence (Q920L2 whole entry, looked up, one chain of several)": "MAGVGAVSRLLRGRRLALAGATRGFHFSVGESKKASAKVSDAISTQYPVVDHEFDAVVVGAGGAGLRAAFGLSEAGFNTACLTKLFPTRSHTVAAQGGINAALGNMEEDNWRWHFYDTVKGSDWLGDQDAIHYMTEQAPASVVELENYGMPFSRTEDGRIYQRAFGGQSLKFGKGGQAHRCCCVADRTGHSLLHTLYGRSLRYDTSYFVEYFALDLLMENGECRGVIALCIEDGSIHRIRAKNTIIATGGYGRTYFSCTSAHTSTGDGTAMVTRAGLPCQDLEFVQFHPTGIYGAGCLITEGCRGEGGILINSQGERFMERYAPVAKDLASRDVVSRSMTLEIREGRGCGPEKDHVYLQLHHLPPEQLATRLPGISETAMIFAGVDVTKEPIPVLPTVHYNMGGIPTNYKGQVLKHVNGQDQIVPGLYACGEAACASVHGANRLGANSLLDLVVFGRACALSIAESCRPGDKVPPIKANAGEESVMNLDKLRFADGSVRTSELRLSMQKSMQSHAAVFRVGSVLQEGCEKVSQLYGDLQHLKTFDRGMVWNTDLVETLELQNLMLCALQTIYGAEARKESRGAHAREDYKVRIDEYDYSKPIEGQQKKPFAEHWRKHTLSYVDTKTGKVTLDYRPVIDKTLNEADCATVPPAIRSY", "experiment": "Inhibition of respiration by 3-nitropropionic acid in whole", "details": "endogenous substrates"}, "[2]": {"biological_target": "T1, succinate dehydrogenase (complex II)", "details": "for IC50: IC50 Complex II"}, "[3]": {"biological_target": "T2, cytochrome bc1 oxidoreductase (complex III) (Rattus norvegicus, UniProt P00159)", "experiment": "Inhibition of respiration by antimycin A in whole", "details": "endogenous substrates"}, "[4]": {"biological_target": "T2, cytochrome bc1 oxidoreductase (complex III)", "details": "for decrease of IC50 with exogenous vs endogenous substrates: excess exogenous glutamate, malate, succinate"}}, "note": "Like-named read-outs stand apart in the source and are kept apart here."}
{"smiles": "O=C(O)CC[N+](=O)[O-]", "note": "[3-NP, 3-nitropropionic acid]", "values": [{"measurement": "percent of initial rate remaining at flux point", "setting": "[1]; 8 mM 3-NP, neurons from middle-age rats", "value": 39, "unit": "%"}, {"measurement": "increase of IC50 with age", "setting": "[1]; old vs middle-age neurons, insignificant", "value": 49, "unit": "%"}, {"measurement": "IC50", "setting": "[2]; MA", "value": 6100, "unit": "µM"}, {"measurement": "IC50", "setting": "[2]; Old", "value": 2100, "unit": "µM"}, {"measurement": "increase of IC50 with exogenous vs endogenous substrates", "setting": "[2]; neurons from middle-age rats, complex I inhibited, excess exogenous succinate", "value": 7, "unit": "%"}, {"measurement": "decrease of IC50 with exogenous vs endogenous substrates", "setting": "[2]; neurons from old rats, complex I inhibited, excess exogenous succinate", "value": 75, "unit": "%"}, {"measurement": "decrease of IC50 with age", "setting": "[2]; old vs middle-age permeabilized neurons, exogenous substrates, insignificant", "value": 66, "unit": "%"}]}
{"smiles": "CCCCCC[C@H]1C(=O)O[C@H](C)[C@H](NC(=O)c2cccc(NC=O)c2O)C(=O)O[C@@H](C)[C@@H]1OC(=O)CC(C)C", "note": "[antimycin A]", "values": [{"measurement": "IC50", "setting": "[3]; IC50 Complex III, Old, neurons from old (24 month) rats", "value": 0.16, "unit": "µM"}, {"measurement": "decrease of IC50 with age", "setting": "[3]; old vs middle-age neurons, p=0.006", "value": 35, "unit": "%"}, {"measurement": "decrease of IC50 with exogenous vs endogenous substrates", "setting": "[4]; neurons from middle-age rats", "value": 46, "unit": "%"}, {"measurement": "decrease of IC50 with exogenous vs endogenous substrates", "setting": "[4]; neurons from old rats", "value": 68, "unit": "%"}, {"measurement": "decrease of IC50 with age", "setting": "[4]; old vs middle-age permeabilized neurons, exogenous substrates, p=0.0001", "value": 60, "unit": "%"}]}
